The values below come from article PMC6155662, “Trypanocidal Activity of Quinoxaline 1,4 Di-N-oxide Derivatives as Trypanothione Reductase Inhibitors” (Molecules : A Journal of Synthetic Chemistry and Natural …, 2017).

Like-named read-outs stand apart in the source and are kept apart here.

The target of one assay is T1, recombinant T. cruzi TR (Trypanosoma cruzi, UniProt P28593).
T1 construct: made in house
The assay can be described thus: TR enzyme inhibition (NADPH consumption at 340 nm). Format: biochemical. The note with it: for inhibitory activity on TR: even when tested at 100 μM, 100 μM or 40 μM TS2; for inhibition at 40 µM: inhibitor 40 µM; for inhibition at 100 µM: inhibitor 100 µM; for inhibition at 20 µM: inhibitor 20 µM; for inhibition at 60 µM: inhibitor 60 µM; for inhibition at 80 µM: inhibitor 80 µM, T-085 precipitates in the assay at 80 µM. How it is done:
Trypanothione disulfide (TS2) and recombinant T. cruzi TR were prepared following published procedures. Recombinant human glutathione reductase (GR) was kindly provided by Dr. Heiner Schirmer, Heidelberg Germany. Stock solutions (5 mM) of the inhibitors were prepared in DMSO. The kinetic analyses were conducted using a Jasco V650 spectrophotometer. All enzymatic tests were performed in polystyrene optical cuvettes (10 × 4 × 45 mm). TR activity was measured at 25 °C in a total volume of 1 mL TR assay buffer (40 mM HEPES, 1 mM EDTA, pH 7.5 [47]) containing 100 μM NADPH and 5–10 mU enzyme in the absence and presence of the inhibitor. Each assay contained a total of 5% DMSO. The reaction was started by adding TS2 and NADPH consumption was followed at 340 nm.
Five compound concentrations were used ranging from 100–5 μM. All measurements were performed twice in three independent series. Enzyme activity was plotted versus increasing inhibitor concentrations. IC50 values were calculated using the four-parameter equation model 205 and the option “unlock” from the XLfit add-in (IDBS, Guildford, United Kingdom) for Excel (Microsoft Corporation, Redmond, WA, USA).
The type of inhibition and the inhibitor constants were derived from Lineweaver-Burk plot. The activity of TR was measured in the absence and presence of two to three constant concentrations of inhibitor varying the concentration of TS2 (20, 40, 60, 100 and 200 µM). The inhibitory constant Ki was calculated from the direct plot using nonlinear least-squares data fitting in Excel spreadsheet.

Assay [1] concerns bloodstream trypomastigotes NINOA and INC-5 of T. cruzi. Further details: method as in PMID 24691716. The note with it: 5 µg/mL (M2 = 14.73 µM, M8 = 17.98 µM, M6 = 14.91 µM); NINOA and INC-5 bloodstream trypomastigotes; cited from earlier work.
The target of another assay is TR. The note with it: known TR inhibitor, quoted for comparison; no reference given; cited from earlier work.
Where [2] appears, read: 40 µM TS2, read-out: % Inhibition of TR at 40 µM [TS2].
Where [3] appears, read: 100 µM TS2, read-out: % Inhibition of TR at 100 µM [TS2].

T1 sequence (P28593 whole entry): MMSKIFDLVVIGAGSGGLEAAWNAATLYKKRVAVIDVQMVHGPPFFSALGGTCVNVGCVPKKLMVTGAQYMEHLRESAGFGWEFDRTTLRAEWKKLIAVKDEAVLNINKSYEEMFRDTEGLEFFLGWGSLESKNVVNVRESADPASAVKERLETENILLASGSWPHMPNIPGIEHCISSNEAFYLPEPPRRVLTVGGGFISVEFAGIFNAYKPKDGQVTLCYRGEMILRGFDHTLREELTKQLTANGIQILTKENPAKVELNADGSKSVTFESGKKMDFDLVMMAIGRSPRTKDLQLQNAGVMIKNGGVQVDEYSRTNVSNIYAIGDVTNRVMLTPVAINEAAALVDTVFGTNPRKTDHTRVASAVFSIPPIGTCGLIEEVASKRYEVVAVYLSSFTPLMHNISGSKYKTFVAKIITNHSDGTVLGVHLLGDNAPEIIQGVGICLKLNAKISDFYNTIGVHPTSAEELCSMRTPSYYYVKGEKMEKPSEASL

In the case of `COC(=O)c1ccc2c(c1)[n+]([O-])c(C(N)=O)c(C)[n+]2[O-]` [Compound T-044], the “inhibitory activity on TR” value on recombinant T. cruzi TR is “no or negligible inhibitory activity”. In addition, the inhibition at 40 µM at recombinant T. cruzi TR (setting [2]) and on recombinant T. cruzi TR (setting [3]) was 0% throughout. In addition, the inhibition at 100 µM on recombinant T. cruzi TR (setting [2]) and at recombinant T. cruzi TR (setting [3]) was 0% throughout. Also, the “% lysis at 5 µg/mL” value in assay [1] is listed as “about 50%”.
On to `COC(=O)c1ccc2c(c1)[n+]([O-])c(C(=O)OC(C)(C)C)c(C)[n+]2[O-]` [Compound T-021], for which, on recombinant T. cruzi TR, the “inhibitory activity on TR” value is reported as “no or negligible inhibitory activity”. Also, the inhibition at 40 µM on recombinant T. cruzi TR (setting [2]) and at recombinant T. cruzi TR (setting [3]) was 0% each time. In addition, the inhibition at 100 µM is 7.5% at recombinant T. cruzi TR (setting [2]) and 0% on recombinant T. cruzi TR (setting [3]). Also, the “% lysis at 5 µg/mL” value in assay [1] is reported as “about 50%”.
In the case of `CCN(CC)CCCC(C)Nc1c2ccc(Cl)cc2nc2ccc(OC)cc12` (stereo not drawn) [mepacrine], the inhibitory constant (Ki) at TR is 19 µM.
`COC(=O)c1ccc2c(c1)[n+]([O-])c(C(=O)c1ccccc1)c(C)[n+]2[O-]` [Compound T-003]: at recombinant T. cruzi TR (setting [2]), the inhibition at 20 µM is 6.6%, the inhibition at 40 µM was 9%, the inhibition at 60 µM stood at 14.8% and the inhibition at 80 µM amounted to 20.5%. Further, at recombinant T. cruzi TR (setting [2]), the inhibition at 100 µM worked out at 23.8%. Also, on recombinant T. cruzi TR (setting [3]), the inhibition at 20 µM turned out to be 6%, the inhibition at 40 µM amounted to 10%, the inhibition at 60 µM stood at 12% and the inhibition at 80 µM came to 18%. On recombinant T. cruzi TR (setting [3]), the inhibition at 100 µM came out at 19.3%. Further, in assay [1], the “% lysis at 5 µg/mL” value was “about 50%”.
